Test results reported in patent US9593138B2, “Nitrile-containing enzyme inhibitors and ruthenium complexes thereof” (Wayne State University, priority 2012, dated 2017).

Legend:
[1] = Quantum yields of photoinduced CH3CN ligand exchange in H2O (Example 12); type: physicochemical; conditions: for quantum yield, first CH3CN ligand exchange (Φ500) / quantum yield, first CH3CN ligand exchange (Φ550): H2O; for quantum yield, first CH3CN ligand exchange (Φ500): 500 nm irradiation
Protocol: The quantum yields (Φ) for photoinduced ligand exchange of the first CH3CN in H2O were measured for complexes 12.1 and 12.3 with 500 nm and 550 nm irradiation wavelengths using the appropriate bandpass filters. The moles of complex reacted was quantitated using electronic absorption spectroscopy by monitoring the decrease in MLCT absorption maximum of each complex as a function of irradiation time (moles reacted/s) at early irradiation times, and Reinecke's salt was used as an actinometer to determine the intensity (Einstein/s) of the Xe arc lamp at the corresponding wavelengths. The Φ for the photoinduced ligand exchange of the second CH3CN ligand was measured for 12.1 using 400 nm and 550 nm irradiation wavelengths using the appropriate bandpass filters monitoring the decrease in the MLCT absorption peak of the mono-aqua intermediate, 12.4.

[2] = Dark controls: ligand exchange in the absence of light; type: physicochemical; conditions: H2O, room temperature (˜22° C.)
Protocol: FIG. 23. Dark Control with respect to FIG. 22 showing that the nitrile ligands are not released under similar conditions in the absence of light for a period of 24 hours.
Photochemistry. The photoreactivity of 12.1-12.3 was evaluated by monitoring the changes to the electronic absorption and ^1H NMR spectra as a function of irradiation time. […] Complexes 12.1-12.3 are inert to ligand substitution in the dark at room temperature under similar experimental conditions. For the symmetrical complexes 12.2 and 12.3, one resonance is observed in CD3CN corresponding to the methyl protons of both bound acetonitrile ligands at 2.22 ppm and 2.28 ppm, respectively. During the photolysis of 12.2 in CD3CN with λirr≧455 nm, the resonance at 2.22 ppm decreases with increasing irradiation time, while a peak at 1.96 ppm corresponding to free CH3CN in CD3CN increases in intensity at the same rate. The photolysis of 12.3 in CD3CN with λirr≧610 nm yields similar results with the decrease of the peak at 2.28 ppm with the concomitant increase of the free CH3CN resonance at 1.96 ppm. The intensity of the peak corresponding to free CH3CN at 1.96 ppm integrates to two ligands at the end of the photolysis for both 12.2 and 12.3 in CD3CN, indicative that that both CH3CN ligands in 12.2 and 12.3 are exchanged. […] Moreover, no shifts are observed in the aromatic region as the reaction progresses. […]

[3] = reported, cited from earlier work
[4] = target: T1, papain (Carica papaya, UniProt P00784); experiment: Papain inhibition, chromogenic substrate BAPNA, light vs dark; type: biochemical
T1 sequence (P00784 134-345): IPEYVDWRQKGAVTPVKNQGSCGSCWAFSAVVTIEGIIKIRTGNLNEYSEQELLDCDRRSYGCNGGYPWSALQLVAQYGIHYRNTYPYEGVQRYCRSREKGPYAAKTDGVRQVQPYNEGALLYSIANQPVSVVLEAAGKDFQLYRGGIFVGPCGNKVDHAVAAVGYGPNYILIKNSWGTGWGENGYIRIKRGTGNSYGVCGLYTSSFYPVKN
Protocol: FIG. 5. […] Data points represent an average of three reactions and error bars are standard deviations.
Papain Inhibition Studies. The inhibition studies with papain were carried out following a modified procedure by Gütschow and coworkers (Löser et al., J. Med. Chem. 2005, 48, 7688-7707). […] A 0.25 mM papain stock solution was prepared in 0.1 mM HCl and kept frozen. For each experiment, the stock solution was diluted 250 times and activated for 45 min at 25° C. with a 0.1 M phosphate pH 6.5, 15 mM DTT and 2.5 mM EDTA buffer solution. A 10.0 mM solution of BAPNA in DMSO was prepared daily and plated (final concentration 1.0 mM). The inhibitor was plated as a 1% DMSO solution in the assay buffer.
The photolysis was conducted for 10 minutes (with gentle shaking of the plate every 2-3 minutes) using a 250 W tungsten halogen lamp (Osram Xenophot HLX) powered by a 24 V power supply. The irradiation wavelength was selected by placing a bandpass filter (395 nm cutoff) between the lamp and the sample, along with a 10 cm water cell to absorb infrared light. After photolysis, the reaction was initiated by addition of 65 μL of enzyme (final volume 100 μL, final enzyme concentration 0.65 μM). The absorbance changes due to the hydrolysis product p-nitroaniline (pNA) were measured at 405 nm every 2 min for 14 min (8 measures) at 25° C.

[5] = tested on: BMM cells; experiment: MTT cell viability, BMM cells; type: cell-based, murine; conditions: 1 nM-100 μM, light or dark, after 24 h
Protocol: In order to gain more insight into the biological behavior of the caged inhibitor, effects of VI and its byproducts on cell viability in BMM cells were determined under light and dark conditions. BMM cells were treated with either VI or cis-[Ru(bpy)2(MeCN)2](PF6)2 as a control (1 nM-100 μM), incubated for 30 min, left in the dark or irradiated with a tungsten halogen lamp for 15 min and then washed, using the same protocol as the confocal microscopy studies shown in FIG. 15. After 24 h viabilities were determined using the MTT assay (FIG. 17).
(§1) FIG. 6. Cytotoxicity of cis-[Ru(bpy)2(2)2]Cl2 (3) and the control compound cis-[Ru(bpy)2(MeCN)2](PF6)2 on BMM cells (A-B) and prostate cancer PC3 cells (C-D). […] Cell viability was determined using the MTT assay after 24 h for BMM cells and 72 h for PC3 cells, and is reported relative to control with only buffer added. Error bars represent the standard deviations of triplicate wells, and data are representative of three independent experiments.

[6] = tested on: prostate cancer PC3 cells; experiment: MTT cell viability, PC3 cells; type: cell-based; conditions: 1 nM-100 μM, light or dark, up to 72 h
Protocol: as §1
These effects are highly dependent on the nature of ligands bound to ruthenium, and with some compounds treatment for up to 72 h is necessary to observe growth inhibitory effects. Later time points were not examined with BMM cells due to complications in maintaining these cells in culture over long periods of time, with or without VI.

[7] = target: T2, human cathepsin K (Homo sapiens, UniProt P43235); experiment: Cathepsin K inhibition by the Ru(TPA)-caged inhibitor, 365 nm light (Example 10); type: biochemical; conditions: 500 μM, highest concentration surveyed, light and dark
T2 sequence (P43235 115-329): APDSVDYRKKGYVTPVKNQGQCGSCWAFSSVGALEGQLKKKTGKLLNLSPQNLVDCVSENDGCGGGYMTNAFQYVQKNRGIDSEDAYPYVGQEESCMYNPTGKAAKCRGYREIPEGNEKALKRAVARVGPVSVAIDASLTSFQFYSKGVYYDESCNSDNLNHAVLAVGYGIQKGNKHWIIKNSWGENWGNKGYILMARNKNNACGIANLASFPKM
Protocol: Complex 10.2 acts as a potent, photoactivated inhibitor of human cathepsin K. IC50 values were determined for 10.2 and 10.3 under dark conditions, and upon irradiation with 365 nm light (FIG. 20).

[8] = target: T3, human cathepsin B (Homo sapiens, UniProt P07858); experiment: Cathepsin B inhibition, Z-Arg-Arg-AMC, light vs dark; type: biochemical; conditions: without irradiation (dark); pH 6.0
T3 construct: Purified cathepsin B (human liver) was obtained from Enzo Life Sciences; purchased Enzo Life Sciences; host or cells: human liver (tissue-purified)
Text: (§2) The irradiation wavelength was selected by placing a bandpass filter (395 nm cutoff) between the lamp and the sample, along with a 10 cm water cell to absorb infrared light.

[9] = target: T2, human cathepsin K; experiment: Cathepsin K inhibition, Z-Gly-Pro-Arg-AMC, light vs dark; type: biochemical; conditions: without irradiation (dark); pH 5.5
Protocol: Cathepsins B, K and L were then examined for photoinduced inhibition with V. IC50 values for 1 and V (with and without irradiation) were determined in aqueous buffer at pH 5.5 for cathepsins L and K, and pH 6.0 for cathepsin B using fluorogenic substrates selective for each enzyme (Table 1). […] Control experiments show some level of inhibition by [Ru^II(bpy)2(MeCN)2](PF6)2, which may explain the lower ratios for dark vs. light conditions observed with cathepsins vs. papain.
The IC50 values represent the average from three independent experiments. […] Activities were determined with the fluorogenic substrates Z-Arg-Arg-AMC (cathepsin B), Z-Gly-Pro-Arg-AMC (cathepsin K) and Z-Phe-Arg-AMC (cathepsin L) (where AMC is aminomethylcoumarin). […]
Cathepsin Inhibition Studies. Cathepsin enzyme activity was determined from kinetic measurements performed by fluorometric detection of the hydrolysis product aminomethylcoumarin (AMC) at 37° C. every 2 min for 14 min (8 measures). […]
The photolysis was conducted for 10 minutes (with gentle shaking of the plate every 2-3 min) using a 250 W tungsten halogen lamp (Osram Xenophot HLX) powered by a 24 V power supply. […] Cathepsin enzyme activity was determined from kinetic measurements performed by fluorometric detection of the hydrolysis product AMC at 37° C. every 2 min for 14 min (8 measures) and MAX RFU slope values used for plotting (FIG. 7).

[10] = target: T4, human cathepsin L (Homo sapiens, UniProt P07711); experiment: Cathepsin L inhibition, Z-Phe-Arg-AMC, light vs dark; type: biochemical; conditions: without irradiation (dark); pH 5.5
T4 construct: purchased Sigma
Text: as §2

[11] = target: T5, human cathepsin B in DU145 lysates (Homo sapiens, UniProt P07858); experiment: Cathepsin B activity in DU145 lysates, Z-Arg-Arg-AMC; type: biochemical; conditions: DU145 lysate, without irradiation (dark)
T5 construct: endogenous in cells; host or cells: DU145 prostate carcinoma cells (ATCC), lysate
Text: as §2

[12] = target: T6, human cathepsin B in hBMSC lysates (Homo sapiens, UniProt P07858); experiment: Cathepsin B activity in hBMSC lysates, Z-Arg-Arg-AMC; type: biochemical; conditions: hBMSC lysate, without irradiation (dark)
T6 construct: lysates from primary human bone marrow stromal cells (hBMSC), an important source of cathepsin activity; endogenous in cells; host or cells: primary human bone marrow stromal cells (hBMSC), lysate
Text: as §2

T4 sequence (P07711 114-333): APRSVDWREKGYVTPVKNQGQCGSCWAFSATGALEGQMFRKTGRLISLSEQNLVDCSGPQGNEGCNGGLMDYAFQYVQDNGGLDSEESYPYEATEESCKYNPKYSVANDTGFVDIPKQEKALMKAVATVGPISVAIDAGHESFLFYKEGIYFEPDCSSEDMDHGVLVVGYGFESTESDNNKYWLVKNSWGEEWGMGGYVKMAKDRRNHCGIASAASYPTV

cis-[Ru(bpy)(biq)(CH3CN)(H2O)]^2+ [12.4]
quantum yield, exchange of the remaining CH3CN ligand (Φ400) ([1]; 400 nm irradiation, to the bis-aqua complex 12.5): 0.0045(1) | quantum yield, exchange of the remaining CH3CN ligand (Φ550) ([1]; 550 nm irradiation, to the bis-aqua complex 12.5): 0.0014(5) | stability in the dark [2]: stable in the dark for up to 6 hours

CC#N.CC#N.[Cl-].[Cl-].[Ru+2].c1ccc(-c2ccccn2)nc1.c1ccc(-c2ccccn2)nc1 [cis-[Ru(bpy)2(MeCN)2]Cl2]
overall photoaquation quantum yield (ΦR→P) ([3]; λirr=400 nm): 0.21

CC#N.CC#N.F[P-](F)(F)(F)(F)F.F[P-](F)(F)(F)(F)F.[Ru+2].c1ccc(-c2ccccn2)nc1.c1ccc(-c2ccccn2)nc1 [cis-[Ru(bpy)2(MeCN)2](PF6)2, reference compound]
IC50 ([4]; control complex, same profile under light and dark conditions): > 500 µM | cell viability (MTT) [5]: no effects on viability | growth inhibitory effects (MTT) [6]: not observed

CC#N.CC#N.F[P-](F)(F)(F)(F)F.F[P-](F)(F)(F)(F)F.[Ru+2].c1cnc2c(c1)ccc1cccnc12.c1cnc2c(c1)ccc1cccnc12 [12.2, [Ru(phen)2(CH3CN)2](PF6)2]
quantum yield, first CH3CN ligand exchange (Φ400) ([1]; 400 nm irradiation): 0.22(1)

CC#N.CC#N.F[P-](F)(F)(F)(F)F.F[P-](F)(F)(F)(F)F.[Ru+2].c1ccc2nc(-c3ccc4ccccc4n3)ccc2c1.c1ccc2nc(-c3ccc4ccccc4n3)ccc2c1 [12.3, [Ru(biq)2(CH3CN)2](PF6)2]
quantum yield, first CH3CN ligand exchange (Φ500) [1]: 0.24(1) | quantum yield, first CH3CN ligand exchange (Φ550) ([1]; 550 nm irradiation): 0.150(8)

[Ru(biq)(phen)(CH3CN)2](PF6)2 [12.1]
quantum yield, first CH3CN ligand exchange (Φ500) [1]: 0.26(1) | quantum yield, first CH3CN ligand exchange (Φ550) ([1]; 550 nm irradiation): 0.140(5)

N#Cc1c[nH]c(=O)[nH]c1=O.N#Cc1c[nH]c(=O)[nH]c1=O.[Cl-].[Cl-].[Ru+2].c1ccc(-c2ccccn2)nc1.c1ccc(-c2ccccn2)nc1 [cis-[Ru(bpy)2(5-cyanouracil)2]Cl2]
quantum yield for formation of the mono-aqua species (ΦR→I) [3]: 0.16(4)

[Ru(TPA)(CH3CN)2](PF6)2 [10.1]
inhibition of cathepsin K [7]: no inhibition

CC(=O)N[C@@H](Cc1ccccc1)C(=O)NCC#N [compound 1, (S)-2-Acetamido-N-(cyanomethyl)-3-phenylpropanamide]
IC50 ([4]; without irradiation, phosphate buffer pH 6.5, enzyme 650 nM): 0.638 µM | IC50 [8]: 133 µM | IC50 [9]: 12 µM | IC50 [10]: 72 µM | IC50 [11]: 182 µM | IC50 [12]: 183 µM
